Laboratory results published in article PMC4482410, “A Peptide Mimetic of 5-Acetylneuraminic Acid-Galactose Binds with High Avidity to Siglecs and NKG2D” (PLoS ONE, 2015).
“And” between values parts separate entries of the source, which are not always exact repeats. Equal values may be shown once. Bridges are numbered along the chain shown (N, C = ends). Roman numbers before positions name the chains, in order. Where no end group is shown, it is not given here.

Tests used:
[1] = molecular target: T1, NKG2D (Homo sapiens, UniProt P26718); experiment: isothermal microcalorimetry; type: binding
T1 construct: the extracellular lectin-type domain was fused at the N-terminus with a human IgG1 Fc domain; purchased R&D Systems, Inc., Minneapolis, MN
T1 sequence (P26718 73-216 limits assumed): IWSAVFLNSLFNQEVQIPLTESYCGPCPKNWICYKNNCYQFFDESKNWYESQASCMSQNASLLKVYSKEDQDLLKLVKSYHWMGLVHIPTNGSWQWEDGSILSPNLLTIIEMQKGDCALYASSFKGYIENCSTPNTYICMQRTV
Protocol: (§1) Isothermal microcalorimetry was performed by TA Instruments Professional Services (New Castle, DE) by titrating 10 μM NKG2D (monomer concentration) (R&D Systems, Inc., Minneapolis, MN) with 100 μM svH1C in 50 mM Tris-HCl, pH 7.5, 150 mM NaCl, 0.1 mM EDTA. Recombinant human receptors were obtained from R&D Systems as chimeric proteins. NKG2D is a type II transmembrane protein and the extracellular lectin-type domain was fused at the N-terminus with a human IgG1 Fc domain. Recombinant siglecs contained a C-terminal IgG1 Fc domain or a His6–10 tag. The lyophilized proteins were reconstituted in phosphate-buffered saline, pH 7.2 (PBS), to 100 μg/mL. The Fc-chimeric proteins were bound to protein A/G-coated wells of microtiter plates (Pierce Biotechnology). His-tagged proteins were bound in Nickel-coated plates (Pierce Biotechnology). Sufficient proteins were added to wells to saturate the binding capacity of the wells. […] Absorbance was measured at 450 nm and converted to the amount of streptavidin-peroxidase bound with the specific activity of the conjugate determined under the conditions of the assay. […]
We then assayed binding of svH1C to NKG2D directly by isothermal microcalorimetry. svH1C (100 μM) was titrated into a solution of NKG2D (10 μM, subunit concentration) and changes in heat content of the system were measured. […]

[2] = toxicity in vivo; conditions: statement for svH1C or similar glycan mimetics; no data shown
[3] = molecular target: T1, NKG2D; experiment: inhibition of binding of svH1C to NKG2D; conditions: estimated from fetuin inhibition (Fig 4); read-out: binding constant of svH1C to NKG2D estimated by inhibition of binding by fetuin
Protocol: as §1, with “wells. After a wash to remove unbound receptor, wells were blocked with 1% gelatin in wash buffer.” for “wells.”
Fig 4 Binding of svH1C to NKG2D. (A) The amount of bound peptide was measured after extensive washing with PBS containing 0.05% Tween-20. […]

[4] = system: lectins that bind monosaccharides; conditions: ref [29],[30]; cited from earlier work
From the text: We initially identified several sequences of amino acids that bound to specific plant lectins by screening phage display libraries. Sequences were further refined by in silico modeling of docking of a peptide into the sugar binding site of the crystal structures of lectins. These studies predicted that several short peptide sequences, 5 to 8 amino acids in length, would have significant affinity to lectins chosen as analogs of cell-surface receptors. […] MAA is a mixture of M. amurensis leukoagglutinin (MAL) and M. amurensis hemagglutinin (MAH), both of which along with SNA1 bind preferentially to terminal Neu5Ac-Gal- sequences on complex glycans. Binding of the peptide to several lectins specific for monosaccharides was not detected. We then assayed binding of svH1C to several siglecs, which comprise a family of cell-surface receptors that are specific for Neu5Ac-Gal/GalNAc- sequ ...

[5] = system: siglecs; experiment: solid-phase binding of biotinylated tetravalent peptides to siglecs; parameters: species or system human; conditions: biotinylated peptides 2 μM
Protocol: as §1, with “wells. After a wash to remove unbound receptor, wells were blocked with 1% gelatin in wash buffer. Wash buffers were either 10 mM phosphate, pH 7.2; 10 mM HEPES, pH 7.4; or 50 mM Tris-HCl, pH.7.5, each in 150 mM NaCl containing 0.05% Tween-20. Biotinylated peptides were prepared as 2 μM solutions in the wash buffer and 50 μL (100 pmoles) were added to each well and incubated at room temperature for one hour. After four washes with 350 μL buffer containing 0.05% Tween-20, each assay was incubated with 50 μL of 1 μg/mL streptavidin-peroxidase (Sigma-Aldrich, St. Louis, MO).” for “wells.”
MAA is a mixture of M. amurensis leukoagglutinin (MAL) and M. amurensis hemagglutinin (MAH), both of which along with SNA1 bind preferentially to terminal Neu5Ac-Gal- sequences on complex glycans. Binding of the peptide to several lectins specific for monosaccharides was not detected. […]

[6] = system: lectins specific for di- or tri-saccharides that terminate with Neu5Ac-Gal; conditions: ref [29],[30]; cited from earlier work
From the text: We initially identified several sequences of amino acids that bound to specific plant lectins by screening phage display libraries. Sequences were further refined by in silico modeling of docking of a peptide into the sugar binding site of the crystal structures of lectins. These studies predicted that several short peptide sequences, 5 to 8 amino acids in length, would have significant affinity to lectins chosen as analogs of cell-surface receptors. The sequences identified by this approach were incorporated into tetravalent structures, a design based on the concept of avidity as a fun ...

| Substance | Kd ([1]; 100 μM svH1C titrated into 10 μM NKG2D (subunit concentration), 50 mM Tris-HCl, pH 7.5, 150 mM NaCl, 0.1 mM EDTA, read-out: KD) | Kd ([1]; abstract, range for siglecs and NKG2D together, read-out: KD, NKG2D (abstract range)) | toxicity in vivo [2] | Kd [3] | binding to lectins specific for monosaccharides [4] | binding of biotinylated tetravalent peptides to siglecs [5] | binding to lectins specific for di- or tri-saccharides that terminate with Neu5Ac-Gal [6] |
| --- | --- | --- | --- | --- | --- | --- | --- |
| I: NPSHPLSGGGGSKK-NH2 / II: NPSHPLSGGGGSK / III: NPSHPLSGGGGS / IV: NPSHPLSGGGGS (amide I:13-IV:C, I:14-II:C, II:13-III:C) [svH1C, [(NPSHPLSGGGGS)2K]2K-NH2] | 580 nM and 600 nM | 600 to 1000 nM | non-toxic in vivo | ~1000 nM | – | – | – |
| NPSHPSLG (also: tetravalent, biotinylated) [svH1D] | – | – | – | – | did not bind | also bound to siglecs | bound strongly |
